The nature of this assay: DPPH radical scavenging antioxidant test. As to conditions: 517 nm; for Inhibition (radical scavenging inhibition): 0.2 mL DPPH (0.75 mM), compound 3 μM in ethanol, 30 min incubation in the dark. The method, then:
The antioxidant properties of the 8-((3,4-dihydroxyphenyl)diazenyl)naphthalene-1,3-disulfonic acid were studied by adding 0.2 mL DPPH (0.75 mM)) to compound 8-((3,4-dihydroxyphenyl)diazenyl)naphthalene-1,3-disulfonic acid (III) (3 μM) in ethanol. After 30 min of incubation in the dark, the absorbance was read against a blank at 517 nm. Ascorbic acid (vitamin C) was used as standard antioxidants (positive control). A blank sample was prepared by 0.2 ml of DPPH in 3 ml ethanol. A negative control sample was run using ethanol instead of the sample. The radical scavenging inhibition was calculated using the following equation: […]
The antioxidant activity for the synthesized compound is listed in Table 1, using Vitamin C as a reference.

Take `O=S(=O)(O)c1cc(S(=O)(=O)O)c2c(/N=N/c3ccc(O)c(O)c3)cccc2c1` [Product III, 8-((3,4-dihydroxyphenyl)diazenyl)naphthalene-1,3-disulfonic acid]: the “Inhibition (radical scavenging inhibition)” value is 54%. Where the note is “DPPH in vitro test, vitamin C as positive control”, the “antioxidant potential compared to vitamin C (in words)” value was “high potential as an antioxidant compared to vitamin C”.
For the compound `O=C1O[C@H]([C@@H](O)CO)C(O)=C1O` [vit c, Ascorbic acid, reference compound], the “Inhibition (radical scavenging inhibition)” value came to 74%.

The record behind these values is patent US12264128B1, “Acid as an antioxidant compound” (KING FAISAL UNIVERSITY, priority 2023, dated 2025).
